Experimental data reported in the NIST ThermoML archive (doi:10.1016/j.jct.2009.09.007).

CCCCCC[n+]1ccn(C)c1.O=S(=O)([N-]S(=O)(=O)C(F)(F)F)C(F)(F)F
Wilhelmy plate method
Conditions | surface tension liquid-gas [mN/m]
283.17 K | 32.34
287.86 K | 32.07
293.15 K | 31.81
298.26 K | 31.59
303.16 K | 31.34
308.99 K | 30.99
314.39 K | 30.71
318.21 K | 30.48
323.09 K | 30.26
327.93 K | 30
333.53 K | 29.8
337.7 K | 29.45
342.32 K | 29.28
347.3 K | 29.06
351.11 K | 28.91

CCn1cc[n+](C)c1.O=S(=O)([N-]S(=O)(=O)C(F)(F)F)C(F)(F)F
Conditions | surface tension liquid-gas [mN/m]
283.16 K, Wilhelmy plate method | 36.78
283.2 K, Ring tensiometer | 37.07
287.3 K, Wilhelmy plate method | 36.58
292.6 K, Wilhelmy plate method | 36.35
297.89 K, Wilhelmy plate method | 36.13
297.95 K, Ring tensiometer | 36.12
302.66 K, Wilhelmy plate method | 35.88
308.82 K, Wilhelmy plate method | 35.61
313.3 K, Wilhelmy plate method | 35.36
317.77 K, Wilhelmy plate method | 35.14
323.16 K, Ring tensiometer | 34.81
323.19 K, Wilhelmy plate method | 34.84
327.91 K, Wilhelmy plate method | 34.66
327.97 K, Ring tensiometer | 34.73
333.82 K, Wilhelmy plate method | 34.29
333.86 K, Ring tensiometer | 34.1
337.84 K, Wilhelmy plate method | 34.06
337.88 K, Ring tensiometer | 34.09
343.6 K, Wilhelmy plate method | 33.79
346.9 K, Ring tensiometer | 33.74
346.93 K, Wilhelmy plate method | 33.66
351.54 K, Wilhelmy plate method | 33.42
351.67 K, Ring tensiometer | 33.2

CCCCn1cc[n+](C)c1.F[B-](F)(F)F [1-butyl-3-methylimidazolium tetrafluoroborate]
Conditions | surface tension liquid-gas [mN/m]
284.17 K, Wilhelmy plate method | 45.29
284.25 K, Ring tensiometer | 45.44
288.28 K, Wilhelmy plate method | 44.98
288.35 K, Ring tensiometer | 45.15
293.32 K, Wilhelmy plate method | 44.56
293.48 K, Ring tensiometer | 44.57
298.48 K, Wilhelmy plate method | 44.26
298.5 K, Ring tensiometer | 44.41
303.41 K, Wilhelmy plate method | 43.84
303.51 K, Ring tensiometer | 44.05
308.38 K, Wilhelmy plate method | 43.68
308.42 K, Ring tensiometer | 43.63
313.73 K, Ring tensiometer | 43.21
313.79 K, Wilhelmy plate method | 43.21
318.15 K, Wilhelmy plate method | 43
318.19 K, Ring tensiometer | 43.19
323.01 K, Ring tensiometer | 42.84
323.03 K, Wilhelmy plate method | 42.58
327.8 K, Wilhelmy plate method | 42.46
327.9 K, Ring tensiometer | 42.62
333.11 K, Wilhelmy plate method | 42.15
333.12 K, Ring tensiometer | 42.07
337.64 K, Wilhelmy plate method | 41.96
337.65 K, Ring tensiometer | 41.78
342.32 K, Ring tensiometer | 41.71
342.4 K, Wilhelmy plate method | 41.56
348.62 K, Ring tensiometer | 41.16
348.74 K, Wilhelmy plate method | 41.3
351.23 K, Wilhelmy plate method | 40.89
351.44 K, Ring tensiometer | 40.85

CCCC[n+]1ccn(C)c1.O=S(=O)([N-]S(=O)(=O)C(F)(F)F)C(F)(F)F
Conditions | surface tension liquid-gas [mN/m]
284.15 K, Wilhelmy plate method | 33.46
284.19 K, Ring tensiometer | 33.48
287.81 K, Wilhelmy plate method | 33.27
294.2 K, Wilhelmy plate method | 33.02
298.35 K, Wilhelmy plate method | 32.85
298.41 K, Ring tensiometer | 33.04
301.96 K, Wilhelmy plate method | 32.66
306.81 K, Wilhelmy plate method | 32.44
310.81 K, Wilhelmy plate method | 32.26
317.93 K, Ring tensiometer | 31.97
317.94 K, Wilhelmy plate method | 31.97
322.99 K, Wilhelmy plate method | 31.74
327.92 K, Wilhelmy plate method | 31.58
332.97 K, Wilhelmy plate method | 31.3
337.12 K, Wilhelmy plate method | 31.17
343.28 K, Wilhelmy plate method | 30.91
347.82 K, Wilhelmy plate method | 30.76
348.05 K, Ring tensiometer | 30.41
351.56 K, Wilhelmy plate method | 30.53
